In patent US9850203B2, “Autotaxin inhibitor compounds” (PharmAkea, Inc., priority 2013, dated 2017):

Biological target: human autotaxin (ATX) (Homo sapiens (Human), UniProt Q13822)
Assay: Human Autotaxin Assay
Type: biochemical
Conditions: concentrated conditioned media from Hep3B cells; LPC substrate, choline release
Method: ATX activity is assayed in concentrated conditioned media from Hep3B human hepatocellular carcinoma cells by measuring the amount of choline released from the substrate, lysophosphatidylcholine (LPC) as it is cleaved to LPA. Conditioned media is collected from confluent Hep3B cells and concentrated 20-fold using Centriprep-30 filter devices (Millipore). To assay for autotaxin inhibition, 10-20 μL of the concentrated conditioned media is incubated with 2.5 μL of a test compound in DMSO and 72.5-82.5 μL lyso-PLD buffer (100 mM Tris pH 9, 500 mM NaCl, 5 mM MgCl2, 5 mM CaCl2, 0.05% Triton X-100 in the presence or absence of 0.2% fatty-acid-free human serum albumin) for 15 min at 37° C. After the 15 min incubation, 5 uL of 2 mM LPC (14:0; Avanti Polar Lipids Cat#855575C) diluted in lyso-PLD buffer is added for a final concentration of 100 uM and the incubation continues for 1.5-3 hours at 37° C.

IC50, ≤ 0.5 µM:
Cc1c(Sc2cccc(C(=O)O)c2)c2ccc(Cl)c(F)c2n1CC(=O)N1CC(O)(C2CC2)C1 [Compound 1-82, 3-((6-Chloro-1-(2-(3-cyclopropyl-3-hydroxyazetidin-1-yl)-2-oxoethyl)-7-fluoro-2-methyl-1H-indol-3-yl)thio)benzoic acid]
Cc1c(Sc2cccc(C(=O)O)c2)c2ccc(Cl)c(F)c2n1CC(=O)N1CCCC(O)(C(F)(F)F)C1 (stereo not drawn) [Compound 1-83, 3-((6-Chloro-7-fluoro-1-(2-(3-hydroxy-3-(trifluoromethyl)piperidin-1-yl)-2-oxoethyl)-2-methyl-1H-indol-3-yl)thio)benzoic acid]
Cc1c(Sc2cccc(C(=O)O)c2)c2ccc(Cl)c(F)c2n1CC(=O)N1CC(O)(C(F)(F)F)C1 [Compound 1-84, 3-((6-Chloro-7-fluoro-1-(2-(3-hydroxy-3-(trifluoromethyl)azetidin-1-yl)-2-oxoethyl)-2-methyl-1H-indol-3-yl)thio)benzoic acid]
Cc1c(Sc2cccc(C(=O)O)c2)c2ccc(Cl)c(F)c2n1CC(=O)N1CCCC1c1cnn(C)c1 (stereo not drawn) [Compound 1-85, 3-((6-Chloro-7-fluoro-2-methyl-1-(2-(2-(1-methyl-1H-pyrazol-4-yl)pyrrolidin-1-yl)-2-oxoethyl)-1H-indol-3-yl)thio)benzoic acid]
Cc1c(Sc2cccc(C(=O)O)c2)c2ccc(Cl)c(F)c2n1CC(=O)N1CC(n2cccn2)C1 [Compound 1-86, 3-((1-(2-(3-(1H-Pyrazol-1-yl)azetidin-1-yl)-2-oxoethyl)-6-chloro-7-fluoro-2-methyl-1H-indol-3-yl)thio)benzoic acid]
Cc1c(Sc2cccc(C(=O)O)c2)c2ccc(Cl)c(F)c2n1CC(=O)N1CCC12CCN(C)CC2 [Compound 1-87, 3-((6-Chloro-7-fluoro-2-methyl-1-(2-(7-methyl-1,7-diazaspiro[3.5]nonan-1-yl)-2-oxoethyl)-1H-indol-3-yl)thio)benzoic acid]
Cc1c(Sc2cccc(C(=O)O)c2)c2ccc(Cl)c(F)c2n1CC(=O)N1CCC(Cc2ccncc2)C1 (stereo not drawn) [Compound 1-88, 3-((6-Chloro-7-fluoro-2-methyl-1-(2-oxo-2-(3-(pyridin-4-ylmethyl)pyrrolidin-1-yl)ethyl)-1H-indol-3-yl)thio)benzoic acid]
Cc1c(Sc2cccc(C(=O)O)c2)c2ccc(Cl)c(F)c2n1CC(=O)N1CCC(c2ccncc2)C1 (stereo not drawn) [Compound 1-89, 3-((6-Chloro-7-fluoro-2-methyl-1-(2-oxo-2-(3-(pyridin-4-yl)pyrrolidin-1-yl)ethyl)-1H-indol-3-yl)thio)benzoic acid]
Cc1c(Sc2cccc(C(=O)O)c2)c2ccc(Cl)c(F)c2n1CC(=O)N1CCC(O)C1 (stereo not drawn) [Compound 1-90, 3-((6-Chloro-7-fluoro-1-(2-(3-hydroxypyrrolidin-1-yl)-2-oxoethyl)-2-methyl-1H-indol-3-yl)thio)benzoic acid]
Cc1c(Sc2cccc(C(=O)O)c2)c2ccc(Cl)c(F)c2n1CC(=O)N1Cc2ccccc2C1 [Compound 1-91, 3-((6-Chloro-7-fluoro-1-(2-(isoindolin-2-yl)-2-oxoethyl)-2-methyl-1H-indol-3-yl)thio)benzoic acid]
Cc1ccc2c(c1)CCN2C(=O)Cn1c(C)c(Sc2cccc(C(=O)O)c2)c2ccc(Cl)c(F)c21 [Compound 1-92, 3-((6-Chloro-7-fluoro-2-methyl-1-(2-(5-methylindolin-1-yl)-2-oxoethyl)-1H-indol-3-yl)thio)benzoic acid]
Cc1c(Sc2cccc(C(=O)O)c2)c2ccc(Cl)c(F)c2n1CC(=O)N1CCC(Cc2cnn(C)c2)C1 (stereo not drawn) [Compound 1-93, 3-((6-Chloro-7-fluoro-2-methyl-1-(2-(3-((1-methyl-1H-pyrazol-4-yl)methyl)pyrrolidin-1-yl)-2-oxoethyl)-1H-indol-3-yl)thio)benzoic acid]
